Reference: ChEMBL document CHEMBL1132933, “Protease inhibitors: synthesis and QSAR study of novel classes of nonbasic thrombin inhibitors incorporating sulfonylguanidine and O-methylsulfonylisourea moieties at P1” (J Med Chem, 2000)

Molecular target: Trypsin (Homo sapiens, UniProt P07477+P07478+P35030)
Experiment: Inhibitory activity against human trypsin (using Chromozym TH as the substrate)
Assay type: protein assay

SMILES	Ki [nM]
Cc1ccc(S(=O)(=O)NC(=O)N[C@@H](Cc2ccccc2)C(=O)N2CCCC2C(=O)Nc2ccc(S(=O)(=O)NN=C(N)N)cc2)cc1 (stereo partly drawn)	1450
N=C(N)NS(=O)(=O)c1ccc([N+](=O)[O-])c(Cl)c1	990
COC(=N)NS(=O)(=O)CC12CCC(CC1=O)C2(C)C (stereo not drawn)	1075
N=C(N)NNS(=O)(=O)c1ccc(NC(=O)[C@@H](Cc2ccccc2)NC(=O)OCc2ccccc2)cc1	1315
N=C(N)NS(=O)(=O)c1ccc(C(=N)N)cc1	450
COC(=N)NS(=O)(=O)c1c(Br)c(Br)c(Br)c(Br)c1C(=O)O	1300
COC(=N)NS(=O)(=O)c1ccccc1C(=O)O	1550
CN(C)S(=O)(=O)N=C(N)N	2890
Cc1ccc(S(=O)(=O)NC(=O)N2CCC[C@H]2C(=O)NCC(=O)Nc2ccc(S(=O)(=O)NN=C(N)N)cc2)cc1	1560
N=C(N)NNS(=O)(=O)c1ccc(N)cc1	1425
COC(=N)NS(=O)(=O)c1ccccc1[N+](=O)[O-]	2340
COC(=N)NS(=O)(=O)c1ccc(F)cc1	1200
CC(=O)Nc1ccc(S(=O)(=O)NN=C(N)N)cc1	1025
COC(=N)NS(=O)(=O)c1ccc(N)cc1	1580
N=C(N)NS(=O)(=O)c1ccc(NC(=O)[C@@H](Cc2ccccc2)NC(=O)OCc2ccccc2)cc1	1285
N=C(N)NS(=O)(=O)c1ccccc1[N+](=O)[O-]	1850
COC(=N)NS(=O)(=O)c1ccc(Cl)cc1	1325
Cc1ccc(S(=O)(=O)NC(=O)N2CCCC2C(=O)Nc2ccc(S(=O)(=O)N=C(N)N)cc2)cc1 (stereo not drawn)	1445
N=C(N)NNS(=O)(=O)c1ccc2ccccc2c1	1285
N=C(N)NNS(=O)(=O)c1ccc(NC(=O)C2CCCN2C(=O)[C@H](Cc2ccccc2)NC(=O)OCc2ccccc2)cc1 (stereo partly drawn)	1400
N=C(N)NS(=O)(=O)c1cccc(N)c1	1145
COC(=N)NS(=O)(=O)c1cc(Cl)cc(Cl)c1O	1550
N=C(N)NCCCNC(=O)[C@@H]1CCCCN1C(=O)C(CC1CCCCC1)NCC(=O)O (stereo partly drawn)	540

Next, values leading:

Ki [nM]	SMILES
1450	COC(=N)NS(=O)(=O)C(F)(F)F
2100	N=C(N)NS(=O)(=O)C(F)(F)C(F)(F)C(F)(F)C(F)(F)F
1950	N=C(N)NS(=O)(=O)C(F)(F)C(F)(F)C(F)(F)C(F)(F)C(F)(F)C(F)(F)C(F)(F)C(F)(F)F
1800	N=C(N)NNS(=O)(=O)c1ccccc1[N+](=O)[O-]
1810	Cc1ccc(S(=O)(=O)N=C(N)N)cc1
1460	COC(=N)NS(=O)(=O)c1ccc(OC)cc1
1775	Cc1ccc(S(=O)(=O)NN=C(N)N)cc1
1445	N=C(N)NS(=O)(=O)c1ccccc1C(=O)O
1100	COc1ccc(S(=O)(=O)NN=C(N)N)cc1N
1350	COC(=N)NS(=O)(=O)c1cccs1
1200	N=C(N)NNS(=O)(=O)c1c(Br)c(Br)c(Br)c(Br)c1C(=O)O
1400	N=C(N)NNS(=O)(=O)c1ccccc1C(=O)O
1595	COC(=N)NS(=O)(=O)c1cccc(C(=O)O)c1
1100	N=C(N)NS(=O)(=O)c1cccc([N+](=O)[O-])c1
1200	COC(=N)NS(=O)(=O)c1ccc([N+](=O)[O-])c(Cl)c1
990	N=C(N)NNS(=O)(=O)c1ccc([N+](=O)[O-])cc1
1375	COC(=N)NS(=O)(=O)c1cccc2c(N(C)C)cccc12
1300	N=C(N)NS(=O)(=O)c1ccc2ccccc2c1
1350	N=C(N)NNS(=O)(=O)c1c(F)c(F)c(F)c(F)c1F
1420	COC(=N)NS(=O)(=O)c1ccc(NC(=O)C2CCCN2C(=O)[C@H](Cc2ccccc2)NC(=O)NS(=O)(=O)c2ccc(C)cc2)cc1 (stereo partly drawn)

Molecular target: Prothrombin (Homo sapiens, UniProt P00734)
Experiment: Inhibitory activity against human thrombin (using Chromozym TH as the substrate)

SMILES	Ki [nM]
Cc1ccc(S(=O)(=O)NC(=O)N[C@@H](Cc2ccccc2)C(=O)N2CCCC2C(=O)Nc2ccc(S(=O)(=O)NN=C(N)N)cc2)cc1 (stereo partly drawn)	10
N=C(N)NS(=O)(=O)c1ccc([N+](=O)[O-])c(Cl)c1	160
COC(=N)NS(=O)(=O)CC12CCC(CC1=O)C2(C)C (stereo not drawn)	336
N=C(N)NNS(=O)(=O)c1ccc(NC(=O)[C@@H](Cc2ccccc2)NC(=O)OCc2ccccc2)cc1	50
N=C(N)NS(=O)(=O)c1ccc(C(=N)N)cc1	300
COC(=N)NS(=O)(=O)c1c(Br)c(Br)c(Br)c(Br)c1C(=O)O	239
COC(=N)NS(=O)(=O)c1ccccc1C(=O)O	325
Cc1ccc(S(=O)(=O)NC(=O)N2CCC[C@H]2C(=O)NCC(=O)Nc2ccc(S(=O)(=O)NN=C(N)N)cc2)cc1	15
N=C(N)NNS(=O)(=O)c1ccc(N)cc1	91
COC(=N)NS(=O)(=O)c1ccccc1[N+](=O)[O-]	355
COC(=N)NS(=O)(=O)c1ccc(F)cc1	280
CC(=O)Nc1ccc(S(=O)(=O)NN=C(N)N)cc1	172
COC(=N)NS(=O)(=O)c1ccc(N)cc1	106
N=C(N)NS(=O)(=O)c1ccc(NC(=O)[C@@H](Cc2ccccc2)NC(=O)OCc2ccccc2)cc1	54
N=C(N)NS(=O)(=O)c1ccccc1[N+](=O)[O-]	320
COC(=N)NS(=O)(=O)c1ccc(Cl)cc1	266
Cc1ccc(S(=O)(=O)NC(=O)N2CCCC2C(=O)Nc2ccc(S(=O)(=O)N=C(N)N)cc2)cc1 (stereo not drawn)	48
N=C(N)NNS(=O)(=O)c1ccc2ccccc2c1	129
N=C(N)NS(=O)(=O)c1cccc(N)c1	107
COC(=N)NS(=O)(=O)c1cc(Cl)cc(Cl)c1O	170

Further lines, results first:

Ki [nM]	SMILES
895	COC(=N)NS(=O)(=O)C(F)(F)F
520	N=C(N)NS(=O)(=O)C(F)(F)C(F)(F)C(F)(F)C(F)(F)F
360	N=C(N)NS(=O)(=O)C(F)(F)C(F)(F)C(F)(F)C(F)(F)C(F)(F)C(F)(F)C(F)(F)C(F)(F)F
324	N=C(N)NNS(=O)(=O)c1ccccc1[N+](=O)[O-]
290	Cc1ccc(S(=O)(=O)N=C(N)N)cc1
276	COC(=N)NS(=O)(=O)c1ccc(OC)cc1
270	Cc1ccc(S(=O)(=O)NN=C(N)N)cc1
240	N=C(N)NS(=O)(=O)c1ccccc1C(=O)O
219	COc1ccc(S(=O)(=O)NN=C(N)N)cc1N
213	COC(=N)NS(=O)(=O)c1cccs1
213	N=C(N)NNS(=O)(=O)c1c(Br)c(Br)c(Br)c(Br)c1C(=O)O
205	N=C(N)NNS(=O)(=O)c1ccccc1C(=O)O
197	COC(=N)NS(=O)(=O)c1cccc(C(=O)O)c1
190	N=C(N)NS(=O)(=O)c1cccc([N+](=O)[O-])c1
177	COC(=N)NS(=O)(=O)c1ccc([N+](=O)[O-])c(Cl)c1
166	N=C(N)NNS(=O)(=O)c1ccc([N+](=O)[O-])cc1
138	COC(=N)NS(=O)(=O)c1cccc2c(N(C)C)cccc12
132	N=C(N)NS(=O)(=O)c1ccc2ccccc2c1
123	N=C(N)NNS(=O)(=O)c1c(F)c(F)c(F)c(F)c1F
18	COC(=N)NS(=O)(=O)c1ccc(NC(=O)C2CCCN2C(=O)[C@H](Cc2ccccc2)NC(=O)NS(=O)(=O)c2ccc(C)cc2)cc1 (stereo partly drawn)
